Results as given in patent US12503463B2, “Aliphatic acid amide derivative” (Sumitomo Pharma Co., Ltd., priority 2019, dated 2025).

Key:
[1] = Test 3-2: metabolic stability test in human hepatic microsome (higher microsome concentration); assay type: in vitro ADME; details: Test 3-2: microsome 0.5 or 1.0 mg/mL, test compound 0.1 μmol/L, 30 or 60 minutes
Experimental: Test 3-2: Metabolic Stability Test in Human Hepatic Microsome
For more accurate evaluation of the metabolic stability in human hepatic microsome, the metabolic stability of the present compound in human hepatic microsome was evaluated at an appropriate concentration of human hepatic microsome as mentioned below. Human hepatic microsome was obtained from Xenontech. Human hepatic microsome, NADPH, and each test compound were mixed in 25 mmol/L phosphate buffer solution (pH 7.4) to reach the following concentrations as shown below, and the mixture was incubated at 37° C. for 60 minutes. • Human hepatic microsome: 0.5 or 1.0 mg/mL • NAPDH: 3.2 mmol/L • Test compound: 0.1 μmol/L
The residual ratio of a test compound in each sample after 30 or 60 minutes was measured by LC-MS, and the metabolic stability in human hepatic microsome was calculated from the following formula. Metabolic stability in human hepatic microsome(mL/min/mg protein)=−LN(residual ratio)/reaction time/concentration of human hepatic microsome

[2] = Test 3-1: metabolic stability test in human hepatic microsome; assay type: in vitro ADME; details: Test 3-1: microsome 0.1 mg/mL, test compound 0.1 μmol/L, 37° C., 30 minutes
Experimental: Test 3-1: Metabolic Stability Test in Human Hepatic Microsome
The metabolic stability of the present compound in human hepatic microsome was evaluated as mentioned below. Human hepatic microsome was obtained from Xenontech. Human hepatic microsome, NADPH, and each test compound were mixed in 25 mmol/L phosphate buffer solution (pH 7.4) to reach the following concentrations as shown below, and the mixture was incubated at 37° C. for 30 minutes. • Human hepatic microsome: 0.1 mg/mL • NAPDH: 3.2 mmol/L • Test compound: 0.1 μmol/L
The residual ratio of test compound in each sample after 30 minutes was measured by LC-MS, and the metabolic stability in human hepatic microsome was calculated from the following formula. Metabolic stability in human hepatic microsome(mL/min/mg protein)=−LN(residual ratio)/30/0.1

human D2 receptor = molecular target: T1, human D2 receptor (Homo sapiens, UniProt P14416); experiment: Test 1: binding activity for human D2 receptor ([3H]Spiperone, CHO cell membrane fraction); details: for D2 Ki/5-HT2A Ki / D2 Ki/5-HT7 Ki: ratio of Ki values
T1 construct: purchased PerkinElmer, Inc; host or cells: CHO cells (membrane fraction)
T1 sequence (P14416 whole entry): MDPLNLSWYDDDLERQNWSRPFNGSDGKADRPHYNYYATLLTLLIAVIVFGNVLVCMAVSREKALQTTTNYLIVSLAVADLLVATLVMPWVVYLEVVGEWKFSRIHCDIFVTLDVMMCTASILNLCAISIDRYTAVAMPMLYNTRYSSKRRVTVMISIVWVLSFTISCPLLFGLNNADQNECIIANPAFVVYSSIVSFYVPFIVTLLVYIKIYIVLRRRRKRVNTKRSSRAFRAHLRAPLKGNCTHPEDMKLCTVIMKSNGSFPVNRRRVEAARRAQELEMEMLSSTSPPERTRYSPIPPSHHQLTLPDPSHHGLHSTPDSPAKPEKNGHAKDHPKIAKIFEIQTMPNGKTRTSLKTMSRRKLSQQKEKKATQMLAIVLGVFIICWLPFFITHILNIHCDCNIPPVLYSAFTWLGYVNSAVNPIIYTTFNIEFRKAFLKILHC
Experimental: (§1) Ki value was evaluated from dissociation constant which was calculated from saturated binding tests, and a substrate concentration, and it was used as an index for binding affinity.

human 5-HT2A receptor [3] = molecular target: T2, human 5-HT2A receptor (Homo sapiens, UniProt P28223); experiment: Test 2: antagonist activity for human 5-HT2A receptor (aequorin luminescence, CHO-K1 cells); assay type: cell-based; details: Gα16
T2 sequence (P28223 whole entry): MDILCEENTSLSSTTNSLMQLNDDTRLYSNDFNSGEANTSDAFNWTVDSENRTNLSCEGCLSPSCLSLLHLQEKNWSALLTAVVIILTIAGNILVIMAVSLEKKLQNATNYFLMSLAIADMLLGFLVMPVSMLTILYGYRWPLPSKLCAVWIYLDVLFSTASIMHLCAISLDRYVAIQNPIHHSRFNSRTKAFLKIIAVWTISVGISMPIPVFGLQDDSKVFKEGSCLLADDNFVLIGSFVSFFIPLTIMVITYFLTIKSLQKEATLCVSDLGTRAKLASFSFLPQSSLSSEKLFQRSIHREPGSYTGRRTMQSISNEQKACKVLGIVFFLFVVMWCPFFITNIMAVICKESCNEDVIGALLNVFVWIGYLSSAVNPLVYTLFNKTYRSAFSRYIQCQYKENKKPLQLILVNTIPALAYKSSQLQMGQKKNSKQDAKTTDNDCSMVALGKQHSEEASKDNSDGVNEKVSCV
Experimental: (§2) Test 2: Evaluation of Antagonist Activity for Human 5-HT2A Receptor and Human 5-HT7 Receptor
(§3) Aequorin, Gα 16 protein, and each receptor were transiently expressed in CHO-K1 cells (Chinese hamster ovary). The cells were cultivated in a CO2 incubator at 37° C. overnight, seeded into a 384-well plate, and stood at room temperature for 2 hours. Each compound dissolved in DMSO was added thereto, and changes in luminescence were measured by FDSS/μCELL drug discovery screening support system (Hamamatsu Photonics K.K.). As for antagonist activity, inhibitory activity of each compound was calculated by setting the luminescence level of wells to which 10 μmol/L endogenous ligand was added as 100%.

human 5-HT2A receptor [4] = molecular target: T2, human 5-HT2A receptor; experiment: Test 1: binding activity for human 5-HT2A receptor ([3H]Ketanserin, CHO cell membrane fraction)
Experimental: as §1

hERG channel = molecular target: T3, hERG channel (Homo sapiens, UniProt Q12809); experiment: Test 5: inhibitory activity for hERG channel (whole cell patch clamp, hERG-CHO cells); assay type: cell-based
T3 construct: host or cells: hERG-CHO cells
T3 sequence (Q12809 whole entry): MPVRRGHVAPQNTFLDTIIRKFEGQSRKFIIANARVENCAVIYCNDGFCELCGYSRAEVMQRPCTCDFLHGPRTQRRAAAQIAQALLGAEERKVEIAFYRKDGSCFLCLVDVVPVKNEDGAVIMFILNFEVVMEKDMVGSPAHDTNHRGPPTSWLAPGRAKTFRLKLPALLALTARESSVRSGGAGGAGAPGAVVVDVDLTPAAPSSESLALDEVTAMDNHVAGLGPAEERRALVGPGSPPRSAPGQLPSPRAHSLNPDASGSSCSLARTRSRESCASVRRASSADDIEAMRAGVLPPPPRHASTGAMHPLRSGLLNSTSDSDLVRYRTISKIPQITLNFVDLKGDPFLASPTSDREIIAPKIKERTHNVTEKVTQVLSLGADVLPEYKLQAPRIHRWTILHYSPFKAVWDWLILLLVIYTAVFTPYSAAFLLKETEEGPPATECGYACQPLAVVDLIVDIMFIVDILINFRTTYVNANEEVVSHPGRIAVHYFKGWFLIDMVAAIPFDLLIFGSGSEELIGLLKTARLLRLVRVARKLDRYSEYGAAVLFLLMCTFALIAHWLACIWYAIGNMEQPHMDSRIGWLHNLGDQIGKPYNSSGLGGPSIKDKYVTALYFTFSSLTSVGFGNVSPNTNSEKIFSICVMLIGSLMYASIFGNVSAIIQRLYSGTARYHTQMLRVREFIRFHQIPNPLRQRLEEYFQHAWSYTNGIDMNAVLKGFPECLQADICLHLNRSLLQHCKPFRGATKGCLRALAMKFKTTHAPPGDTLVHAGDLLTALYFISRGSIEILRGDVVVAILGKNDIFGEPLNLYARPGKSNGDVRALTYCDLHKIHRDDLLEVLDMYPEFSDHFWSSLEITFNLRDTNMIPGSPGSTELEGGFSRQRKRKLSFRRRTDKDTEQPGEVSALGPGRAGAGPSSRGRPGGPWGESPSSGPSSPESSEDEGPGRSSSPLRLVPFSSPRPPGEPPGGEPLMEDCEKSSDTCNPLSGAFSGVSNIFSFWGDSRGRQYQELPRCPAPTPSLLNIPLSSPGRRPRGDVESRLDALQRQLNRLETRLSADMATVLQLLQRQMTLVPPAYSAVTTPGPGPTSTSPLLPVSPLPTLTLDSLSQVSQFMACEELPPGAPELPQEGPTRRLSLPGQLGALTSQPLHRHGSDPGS
Experimental: Test 5: Evaluation of Inhibitory Activity for hERG Channel
Inhibitory activity of the present compound for hERG channel was measured by whole cell patch clamp method with an auto patch clamp system using CHO cells in which hERG channel involved in human rapidly activating delayed rectifier potassium current (IKr) was forcibly expressed.
hERG-CHO cells purchased from ChanTest Cop. were cultured in a CO2 incubator at 37° C., and dissociated from a flask with trypsin shortly before the measurement of hERG current to prepare a cell suspension.
The cell suspension, the extracellular fluid, the intracellular fluid, and the measurement plate were set in an auto patch clamp system, and hERG current was measured by whole cell patch clamp method. […] Each pulse interval was 15 seconds. The data analysis was carried out with Qube Assay Software (Sophion Sophion). The test was carried out by applying incrementally 4 concentrations of each test compound, and the average of the maximum peak tail currents which were obtained from the last 3 stimulations in each concentration was determined as the evaluated data.

human 5-HT7 receptor [5] = molecular target: T4, human 5-HT7 receptor (Homo sapiens, UniProt P34969); experiment: Test 1: binding activity for human 5-HT7 receptor ([3H]SB-269970, CHO cell membrane fraction)
T4 sequence (P34969 whole entry): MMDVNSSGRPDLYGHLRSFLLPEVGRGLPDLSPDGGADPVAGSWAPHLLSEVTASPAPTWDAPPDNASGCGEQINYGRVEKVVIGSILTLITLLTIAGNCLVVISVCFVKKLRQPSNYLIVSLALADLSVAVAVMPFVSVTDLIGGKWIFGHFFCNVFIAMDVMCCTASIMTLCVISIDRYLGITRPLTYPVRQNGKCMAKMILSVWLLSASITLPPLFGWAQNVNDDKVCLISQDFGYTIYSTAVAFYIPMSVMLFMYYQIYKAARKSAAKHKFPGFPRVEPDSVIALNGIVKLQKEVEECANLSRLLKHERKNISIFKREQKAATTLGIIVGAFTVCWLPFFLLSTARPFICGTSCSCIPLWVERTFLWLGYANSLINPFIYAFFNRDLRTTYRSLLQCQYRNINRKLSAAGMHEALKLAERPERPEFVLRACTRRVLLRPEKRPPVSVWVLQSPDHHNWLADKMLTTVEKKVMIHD
Experimental: as §1

human 5-HT7 receptor [6] = molecular target: T4, human 5-HT7 receptor; experiment: Test 2: antagonist activity for human 5-HT7 receptor (aequorin luminescence, CHO-K1 cells); assay type: cell-based; details: Gα16
Experimental: as §2, §3

SMILES: CCN(CCN1CCC(c2noc3cc(F)ccc23)CC1)C(=O)[C@H](C)O [Example 16, (2S)-N-Ethyl-N-{2-[4-(6-fluoro-1,2-benzoisoxazol-3-yl)piperidin-1-yl]ethyl}-2-hydroxypropanamide]
- Metabolic stability in human hepatic microsome [1]: 0.018 mL/min/mg protein
- Metabolic stability in human hepatic microsome [2]: <0.05 mL/min/mg protein

SMILES: CCN(CCN1CCC(c2noc3cc(F)ccc23)CC1)C(=O)CCO [Example 17, N-Ethyl-N-{2-[4-(6-fluoro-1,2-benzoisoxazol-3-yl)piperidin-1-yl]ethyl}-3-hydroxypropanamide]
- Metabolic stability in human hepatic microsome [1]: 0.0025 mL/min/mg protein
- Metabolic stability in human hepatic microsome [2]: <0.05 mL/min/mg protein

SMILES: CCN(CCN1CCC(c2noc3cc(F)ccc23)CC1)S(=O)(=O)CCO [Example 51, N-Ethyl-N-{2-[4-(6-fluoro-1,2-benzoisoxazol-3-yl)piperidin-1-yl]ethyl}-2-hydroxyethane-1-sulfonamide]
- Metabolic stability in human hepatic microsome [1]: 0.016 mL/min/mg protein
- Metabolic stability in human hepatic microsome [2]: <0.05 mL/min/mg protein

SMILES: CCN(CCN1CCC(c2noc3cc(F)ccc23)CC1)S(=O)(=O)C(C)CO (stereo not drawn) [Example 52]
- D2 Ki/5-HT2A Ki (human D2 receptor): >34
- D2 Ki/5-HT7 Ki (human D2 receptor): >30

SMILES: CCN(CCN1CCC(c2noc3cc(F)ccc23)CC1)C(=O)C(O)CN (stereo not drawn) [Example 65, 3-Amino-N-ethyl-N-{2-[4-(6-fluoro-1,2-benzoisoxazol-3-yl)piperidin-1-yl]ethyl}-2-hydroxypropanamide]
- D2 Ki/5-HT2A Ki (human D2 receptor): 48
- D2 Ki/5-HT7 Ki (human D2 receptor): 26
- Metabolic stability in human hepatic microsome [2]: <0.05 mL/min/mg protein

SMILES: CCN(CCN1CCC(c2noc3cc(F)ccc23)CC1)C(=O)C1CNCC1O (stereo not drawn) [Example 66]
- Metabolic stability in human hepatic microsome [2]: <0.05 mL/min/mg protein

SMILES: CCN(CCN1CCC(c2noc3cc(F)ccc23)CC1)C(=O)C1CNCCC1O (stereo not drawn) [Example 67]
- Metabolic stability in human hepatic microsome [2]: <0.05 mL/min/mg protein

SMILES: CCN(CCN1CCC(c2noc3cc(F)ccc23)CC1)C(=O)[C@H]1NCC[C@H]1O [Example 68]
- Metabolic stability in human hepatic microsome [2]: <0.05 mL/min/mg protein

SMILES: CCN(CCN1CCC(c2noc3cc(F)ccc23)CC1)C(=O)C1(O)CCCNC1 (stereo not drawn) [Example 69]
- Metabolic stability in human hepatic microsome [2]: <0.05 mL/min/mg protein

SMILES: CCN(CCN1CCC(c2noc3cc(F)ccc23)CC1)C(=O)C1(O)CCNC1 (stereo not drawn) [Example 70]
- Metabolic stability in human hepatic microsome [2]: <0.05 mL/min/mg protein

SMILES: CCN(CCN1CCC(c2noc3cc(F)ccc23)CC1)C(=O)C(O)CNC(C)=O (stereo not drawn) [Example 71, 3-Acetamide-N-ethyl-N-{2-[4-(6-fluoro-1,2-benzoisoxazol-3-yl)piperidin-1-yl]ethyl}-2-hydroxypropanamide]
- IC50 (human 5-HT2A receptor [3]): 25 nM
- Ki (human 5-HT2A receptor [4]): 2.2 nM
- Ki (human D2 receptor; human D2 receptor, [3H]Spiperone): 223 nM
- D2 Ki/5-HT2A Ki (human D2 receptor): 99
- D2 Ki/5-HT7 Ki (human D2 receptor): 36
- IC50 (hERG channel; hERG-CHO cells, auto patch clamp): > 10000 nM
- hERG inhibitory IC50 (nmol/L)/5-HT7 Ki (nmol/L) (hERG channel; ratio): >1624
- Metabolic stability in human hepatic microsome [2]: <0.05 mL/min/mg protein
- Ki (human 5-HT7 receptor [5]): 6.2 nM
- IC50 (human 5-HT7 receptor [6]): 78 nM

SMILES: CCN(CCN1CCC(c2noc3cc(F)ccc23)CC1)C(=O)C1(O)CCCN(C(C)=O)C1 (stereo not drawn) [Example 72]
- Metabolic stability in human hepatic microsome [2]: 0.057 mL/min/mg protein

SMILES: CCN(CCN1CCC(c2noc3cc(F)ccc23)CC1)C(=O)C1CN(C(C)=O)CCC1O (stereo not drawn) [Example 74]
- Metabolic stability in human hepatic microsome [2]: <0.05 mL/min/mg protein

SMILES: CCN(CCN1CCC(c2noc3cc(F)ccc23)CC1)C(=O)C1CN(C)CC1O (stereo not drawn) [Example 75, N-Ethyl-N-{2-[4-(6-fluoro-1,2-benzoisoxazol-3-yl)piperidin-1-yl]ethyl}-4-hydroxy-1-methylpyrrolidine-3-carboxamide]
- Metabolic stability in human hepatic microsome [2]: <0.05 mL/min/mg protein

SMILES: CCN(CCN1CCC(c2noc3cc(F)ccc23)CC1)C(=O)C1CN(C)CCC1O (stereo not drawn) [Example 76, N-Ethyl-N-{2-[4-(6-fluoro-1,2-benzoisoxazol-3-yl)piperidin-1-yl]ethyl}-4-hydroxy-1-methylpiperidine-3-carboxamide]
- Metabolic stability in human hepatic microsome [2]: <0.05 mL/min/mg protein
